Results: US6455540B1, “Methods of use of quinolone compounds against anaerobic pathogenic bacteria” (priority 1999, dated 2002)
Values after ≈ are worked out from the molar mass of the structure shown.

Tests used:
Experiment in all cases: Agar dilution MIC
[1] = test system: Actinomyces odontolyticus; assay type: cell-based; conditions: Schaalia odontolytica, 10 isolates
Actinomyces israelii = assay type: cell-based; conditions: 6 isolates
[2] = test system: Anaerobiospirillum thomasii; assay type: cell-based; conditions: Anaerobiospirillum thomasii, 13 isolates
[3] = test system: Anaerobiospirillum succiniciproducens; assay type: cell-based; conditions: 3 isolates
Bacteroides gracilis = assay type: cell-based, Bacteroides gracilis (Campylobacter gracilis); conditions: 11 isolates
Bacteroides tectum = assay type: cell-based; conditions: 22 isolates
Bacteroides ureolyticus = assay type: cell-based; conditions: 17 isolates
Bilophila wadsworthia = assay type: cell-based; conditions: 16 isolates, agar supplemented with pyruvate
[4] = test system: Clostridium clostridioforme; assay type: cell-based; conditions: Clostridium, 11 isolates
Clostridium dfficile = assay type: cell-based, Clostridium difficile; conditions: Clostridium
Clostridium inocuum = assay type: cell-based, Clostridium innocuum; conditions: Clostridium, 11 isolates
Clostridium ramosum = assay type: cell-based; conditions: Thomasclavelia ramosa, 10 isolates
[5] = test system: Fusobacterium spp group 1; assay type: cell-based; conditions: 19 isolates
[6] = test system: Fusobacterium spp. group 2; assay type: cell-based, Fusobacterium mortiferum, necrogenes, ulcerans; conditions: Fusobacterium, 12 isolates
Fusobacterium russii = assay type: cell-based
Fusobacterium varium = assay type: cell-based; conditions: Fusobacterium varium, 17 isolates
[7] = test system: Peptostreptococcus asaccharolyticus; assay type: cell-based; conditions: Peptoniphilus asaccharolyticus, 11 isolates
[8] = test system: Peptostreptococcus magnus; assay type: cell-based; conditions: Finegoldia magna, 13 isolates
[9] = test system: Peptostreptococcus micros; assay type: cell-based; conditions: 12 isolates
[10] = test system: Peptostreptococcus prevotii; assay type: cell-based; conditions: Anaerococcus prevotii, read-out: Minimal Inhibitory Concentration 50% (MIC50); 9 isolates
[11] = test system: Porphyromonas asaccharolyticus; assay type: cell-based, Porphyromonas asaccharolytica; conditions: Porphyromonas, 11 isolates
Porphyromonas canoris = assay type: cell-based; conditions: Porphyromonas canoris, 10 isolates
Porphyromonas gingivalis = assay type: cell-based; conditions: Porphyromonas gingivalis, 13 isolates
Porphyromonas macaccae = assay type: cell-based; conditions: Porphyromonas, 13 isolates
Porphyromonas spp. = assay type: cell-based, Porphyromonas cangingivalis, cansulci, circumdentaria, levii; conditions: Porphyromonas, 11 isolates
Prevotella bivia = assay type: cell-based; conditions: Prevotella bivia, 21 isolates
[12] = test system: Prevotella buccae-oris group; assay type: cell-based; conditions: Prevotella, 22 isolates
[13] = test system: Prevotella heparinolytica; assay type: cell-based; conditions: 16 isolates
Prevotella intermedia = assay type: cell-based; conditions: 11 isolates
[14] = test system: Prevotella melaninogenica; assay type: cell-based; conditions: Prevotella melaninogenica, 12 isolates
[15] = test system: Prevotella denticola/loeschii group; assay type: cell-based; conditions: 6 isolates
Veillonella spp. = assay type: cell-based; conditions: Veillonella, 24 isolates
[16] = read-out: Minimal Inhibitory Concentration 90% (MIC90)
[17] = read-out: Minimal Inhibitory Concentration 50% (MIC50)

## CC[C@H]1OC(=O)[C@H](C)[C@@H](O[C@H]2C[C@@](C)(OC)[C@@H](O)[C@H](C)O2)[C@H](C)[C@@H](O[C@@H]2O[C@H](C)C[C@H](N(C)C)[C@H]2O)[C@](C)(O)C[C@@H](C)CN(C)[C@H](C)[C@@H](O)[C@]1(C)O [Azithromycin]
[1]; [16]
  MIC90: 0.06 µg/mL (≈ 0.0801 µM)
[1]; [17]
  MIC50: 0.03 µg/mL (≈ 0.0401 µM)
Actinomyces israelii
  Minimal Inhibitory Concentration Range: 0.06 µg/mL
Actinomyces israelii; Actinomyces israelii, read-out: Minimal Inhibitory Concentration 50% (MIC50)
  MIC50: 0.06 µg/mL (≈ 0.0801 µM)
[2]; [17]
  MIC50: 0.5 µg/mL (≈ 0.668 µM)
[2]; [16]
  MIC90: 1 µg/mL (≈ 1.34 µM)
[3]
  Minimal Inhibitory Concentration Range: 0.5 to 1 µg/mL
[3]; Anaerobiospirillum succiniciproducens, read-out: Minimal Inhibitory Concentration 50% (MIC50)
  MIC50: 0.5 µg/mL (≈ 0.668 µM)
Bacteroides gracilis
  Minimal Inhibitory Concentration Range: 0.06 to 0.5 µg/mL
Bacteroides gracilis; Campylobacter gracilis, read-out: Minimal Inhibitory Concentration 90% (MIC90)
  MIC90: 0.5 µg/mL (≈ 0.668 µM)
Bacteroides gracilis; Campylobacter gracilis, read-out: Minimal Inhibitory Concentration 50% (MIC50)
  MIC50: 0.125 µg/mL (≈ 0.167 µM)
Bacteroides tectum
  Minimal Inhibitory Concentration Range: 0.5 to 2 µg/mL
Bacteroides tectum; Bacteroides pyogenes, read-out: Minimal Inhibitory Concentration 90% (MIC90)
  MIC90: 2 µg/mL (≈ 2.67 µM)
Bacteroides tectum; Bacteroides pyogenes, read-out: Minimal Inhibitory Concentration 50% (MIC50)
  MIC50: 1 µg/mL (≈ 1.34 µM)
Bacteroides ureolyticus
  Minimal Inhibitory Concentration Range: 0.06 to 0.25 µg/mL
Bacteroides ureolyticus; Campylobacter ureolyticus, read-out: Minimal Inhibitory Concentration 90% (MIC90)
  MIC90: 0.25 µg/mL (≈ 0.334 µM)
Bacteroides ureolyticus; Campylobacter ureolyticus, read-out: Minimal Inhibitory Concentration 50% (MIC50)
  MIC50: 0.06 µg/mL (≈ 0.0801 µM)
Bilophila wadsworthia
  Minimal Inhibitory Concentration Range: 1 to 16 µg/mL
Bilophila wadsworthia; Bilophila wadsworthia, read-out: Minimal Inhibitory Concentration 90% (MIC90)
  MIC90: 16 µg/mL (≈ 21.4 µM)
Bilophila wadsworthia; Bilophila wadsworthia, read-out: Minimal Inhibitory Concentration 50% (MIC50)
  MIC50: 4 µg/mL (≈ 5.34 µM)
[4]; [16]
  MIC90: > 32 µg/mL
[4]; [17]
  MIC50: 16 µg/mL (≈ 21.4 µM)
Clostridium dfficile; [17]
  MIC50: 2 µg/mL (≈ 2.67 µM)
Clostridium dfficile; read-out: Minimal Inhibitory Concentration 90% (MIC90), 14 isolates
  MIC90: > 32 µg/mL
Clostridium inocuum; [16]
  MIC90: > 32 µg/mL
Clostridium inocuum; [17]
  MIC50: > 32 µg/mL
Clostridium ramosum; [17]
  MIC50: 0.25 µg/mL (≈ 0.334 µM)
Clostridium ramosum; [16]
  MIC90: > 32 µg/mL
[5]
  Minimal Inhibitory Concentration Range: 0.06 to 32 µg/mL
[5]; Fusobacterium, GROUP1, read-out: Minimal Inhibitory Concentration 50% (MIC50)
  MIC50: 1 µg/mL (≈ 1.34 µM)
[5]; Fusobacterium, GROUP1, read-out: Minimal Inhibitory Concentration 90% (MIC90)
  MIC90: 8 µg/mL (≈ 10.7 µM)
[6]; [17]
  MIC50: 16 µg/mL (≈ 21.4 µM)
[6]; [16]
  MIC90: 32 µg/mL (≈ 42.7 µM)
Fusobacterium russii
  Minimal Inhibitory Concentration Range: 0.03 to 32 µg/mL
Fusobacterium russii; Fusobacterium russii, read-out: Minimal Inhibitory Concentration 50% (MIC50)
  MIC50: 0.25 µg/mL (≈ 0.334 µM)
Fusobacterium russii; Fusobacterium russii, read-out: Minimal Inhibitory Concentration 90% (MIC90)
  MIC90: 32 µg/mL (≈ 42.7 µM)
Fusobacterium varium; [17]
  MIC50: 32 µg/mL (≈ 42.7 µM)
Fusobacterium varium; [16]
  MIC90: > 32 µg/mL
[7]; [17]
  MIC50: 4 µg/mL (≈ 5.34 µM)
[7]; [16]
  MIC90: > 32 µg/mL
[8]; [17]
  MIC50: 4 µg/mL (≈ 5.34 µM)
[8]; [16]
  MIC90: > 32 µg/mL
[9]
  Minimal Inhibitory Concentration Range: 0.5 to 1 µg/mL
[9]; Parvimonas micra, read-out: Minimal Inhibitory Concentration 50% (MIC50)
  MIC50: 0.5 µg/mL (≈ 0.668 µM)
[9]; Parvimonas micra, read-out: Minimal Inhibitory Concentration 90% (MIC90)
  MIC90: 1 µg/mL (≈ 1.34 µM)
[10]
  MIC50: 32 µg/mL (≈ 42.7 µM)
[11]; [17]
  MIC50: 0.25 µg/mL (≈ 0.334 µM)
[11]; [16]
  MIC90: > 32 µg/mL
Porphyromonas canoris; [17]
  MIC50: 0.25 µg/mL (≈ 0.334 µM)
Porphyromonas canoris; [16]
  MIC90: 0.25 µg/mL (≈ 0.334 µM)
Porphyromonas gingivalis; [17]
  MIC50: 0.25 µg/mL (≈ 0.334 µM)
Porphyromonas gingivalis; [16]
  MIC90: 0.5 µg/mL (≈ 0.668 µM)
Porphyromonas macaccae; [17]
  MIC50: 0.5 µg/mL (≈ 0.668 µM)
Porphyromonas macaccae; [16]
  MIC90: 0.5 µg/mL (≈ 0.668 µM)
Porphyromonas spp.; [17]
  MIC50: 0.25 µg/mL (≈ 0.334 µM)
Porphyromonas spp.; [16]
  MIC90: 0.5 µg/mL (≈ 0.668 µM)
Prevotella bivia; [16]
  MIC90: 1 µg/mL (≈ 1.34 µM)
Prevotella bivia; [17]
  MIC50: 0.5 µg/mL (≈ 0.668 µM)
[12]; [16]
  MIC90: 1 µg/mL (≈ 1.34 µM)
[12]; [17]
  MIC50: 0.5 µg/mL (≈ 0.668 µM)
[13]
  Minimal Inhibitory Concentration Range: 0.5 to 1 µg/mL
[13]; Prevotella heparinolytica, read-out: Minimal Inhibitory Concentration 90% (MIC90)
  MIC90: 1 µg/mL (≈ 1.34 µM)
[13]; Prevotella heparinolytica, read-out: Minimal Inhibitory Concentration 50% (MIC50)
  MIC50: 0.5 µg/mL (≈ 0.668 µM)
Prevotella intermedia
  Minimal Inhibitory Concentration Range: 0.03 to 1 µg/mL
Prevotella intermedia; Prevotella intermedia, read-out: Minimal Inhibitory Concentration 90% (MIC90)
  MIC90: 0.5 µg/mL (≈ 0.668 µM)
Prevotella intermedia; Prevotella intermedia, read-out: Minimal Inhibitory Concentration 50% (MIC50)
  MIC50: 0.125 µg/mL (≈ 0.167 µM)
[14]; [16]
  MIC90: 32 µg/mL (≈ 42.7 µM)
[14]; [17]
  MIC50: 0.25 µg/mL (≈ 0.334 µM)
[15]
  Minimal Inhibitory Concentration Range: 0.06 to 16 µg/mL
[15]; Prevotella denticola, read-out: Minimal Inhibitory Concentration 50% (MIC50)
  MIC50: 0.5 µg/mL (≈ 0.668 µM)
Veillonella spp.; [16]
  MIC90: > 32 µg/mL
Veillonella spp.; [17]
  MIC50: 4 µg/mL (≈ 5.34 µM)
